These results are taken from patent US20070243254A1, “NOVEL DRUG COMPOSITIONS AND DOSAGE FORMS OF TOPIRAMATE” (priority 2002, published 2007).

Molecules are shown by their SMILES. ≈ marks a conversion by molar mass, not a printed value. Like-named read-outs stand apart in the source and are kept apart here.

The nature of data set [1]: equilibrium solubility of topiramate in de-ionized water and aqueous surfactant solutions. In kind it is physicochemical. The following applies: for solubility: de-ionized water. The protocol:
As defined herein, the solubility of a pharmaceutical agent is determined by adding the pharmaceutical agent to stirred or agitated de-ionized water maintained in a constant temperature bath at a temperature of 37° C. until no more pharmaceutical agent dissolves. The resulting solution saturated with the pharmaceutical agent is then filtered, typically under pressure through a 0.8-micron Millipore filter, and the concentration of the pharmaceutical agent in the solution is measured by any appropriate analytical method including gravimetric, ultraviolet spectrophometry, chromatography, and the like. The solubility of the pharmaceutical agent is measured at equilibrium.
A drug composition of the present invention was prepared as follows. Aqueous solutions of five surfactants were prepared. The selected surfactants were four grades of ethylene oxide/propylene oxide/ethylene oxide (LUTROL grades F127, F87, F108, and F68) and PEG-40 stearate (MYRJ 52). Solutions were made at concentrations of 1, 5, and 15 weight percent. The aqueous surfactant blends solutions were chilled as necessary to promote complete dissolution of the surfactant prior to drug solubility studies.
The aqueous surfactant solutions were equilibrated to constant temperature in a 37° C. water bath. Then, neat topiramate drug was added slowly with stirring in approximately 10 mg increments to the surfactant solutions until no more drug dissolved. A control sample of drug dissolved in de-ionized water without surfactant was included for comparison purposes. The resulting saturated solutions of drug were filtered through 0.8 micron filters and analyzed for drug concentration by refractive index chromatography. The resulting solubility values were plotted as a function of both surfactant concentration and the hydrophilic-lipophilic balance value of each surfactant. FIG. 6 was constructed from the solubility values obtained and HLB data for each surfactant utilized.

The conditions of data set [2]: cited from earlier work.
For data set [3] the following is noted: cited from earlier work. This is another data set of the same source.

As a reminder, the solubility is the concentration that dissolves in the medium under given conditions. Turning to `CC1(C)O[C@@H]2[C@@H](CO[C@@]3(COS(N)(=O)=O)OC(C)(C)O[C@@H]23)O1` [topiramate, 2,3:4,5-bis-O-(1-methylethylidene)-β-D-fructopyranose sulfamate], the “solubility in water in presence of surfactant” value in data set [1] (LUTROL F127, F87, F108, F68, MYRJ 52 at 1, 5, 15 weight percent, 37° C.) was “increased by each surfactant”. The solubility in data set [1] (water, thermodynamic from solid, without surfactant, 37° C., read-out: solubility in de-ionized water) is ~12 mg/mL (≈ 35.4 mM). Moreover, the solubility in data set [1] (read-out: solubility of neat topiramate (range)) lay in the range of 9.8 to 13 mg/mL (≈ 28.9 to 38.3 mM). Besides, the “solubility in organic solvents” value in data set [2] (acetone, dimethylsulfoxide, ethanol) is “soluble in acetone, dimethylsulfoxide and ethanol”. In addition, the “solubility in alkaline solutions” value in data set [2] (alkaline solutions containing sodium hydroxide or sodium phosphate) is given as “soluble in alkaline solutions”. Further, the “solubility of topiramate in water” value in data set [2] (room temperature) is on record as “about 9.8 mg/ml”. In data set [3] (in vivo), the “dose proportionality of pharmacokinetics” value is reported as “linear”, the “effect of food on pharmacokinetics” value is reported as “not significantly affected by food”, the excretion result is “excreted largely through the urine” and the “mean elimination half life” value was “about 21 hours”. For the same compound, the metabolism entry in data set [3] (in vivo) is listed as “not extensively metabolized”. Moreover, in data set [3] (oral, immediate release dosage form), the “time to peak plasma drug concentrations” value was “approximately 2 hours”.
